{"source": "patent US8790640B1", "about": "“Treating inflammation with a binding system” (LiveLeaf, Inc., priority 2011, dated 2014)", "assay": "Hydrogen peroxide retention of extracts after desiccation and rehydration (colorimetric strips)", "type": "physicochemical", "conditions": "dissolved in 35% hydrogen peroxide, heated at 80° C., rehydrated", "protocol": "In order to compare the samples provided above, a test series was prepared in 30 ml tubes containing from 1 g˜10 g of the above extracts of Chinese Gall, Green Tea, Pomegranate and Resveratrol. Each was dissolved in 20 ml of 35% hydrogen peroxide then separate to two aliquots. One part was heated at 80° C. to a dark viscous semi-liquid and allowed to desiccate to a final volume of 5 ml. Each was rehydrated and serially diluted to detection range."}
{"smiles": "Oc1ccc(C=Cc2cc(O)cc(O)c2)cc1", "note": "[resveratrol, Resveratrol]", "values": [{"measurement": "peroxide retention capability", "result": "relatively less ability to form stable perhydrates"}]}
